The record followed here is ChEMBL document CHEMBL1201862, “PubChem BioAssay data set” (2004).

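A five-concentration, 48-hour dose response in 96-well plates underlies each endpoint, interpolated linearly between surrounding concentrations. At the GI50, growth is halved.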 Calls of active or inactive are those of the source. No stated cut-off is given here; in the data, active = GI50 up to about 1.1 µM and inactive = higher.

What all share (assay): NCI-60 cell line screen, 48 h
The test system of assay [1] is NCI/ADR-RES.
In assay [2] the test system is NCI-H460.
The test system of assay [3] is A549.
The subject of assay [4] is SF-295.
The test system of assay [5] is UACC-62.
Assay [6] deals with HCT-116.
In assay [7] the test system is OVCAR-8.
Assay [8] has as its system KM-20L2.
The test system of assay [9] is OVCAR-3.
Assay [10] deals with SK-MEL-2.
Assay [11] concerns Hs-578T.
The subject of assay [12] is CCRF-CEM.
The subject of assay [13] is HCC 2998.
Assay [14] deals with TK-10.
Assay [15] concerns SNB-19.
Assay [16] deals with MOLT-4.
The subject of assay [17] is A498.
Assay [18] concerns SN12C.
The subject of assay [19] is SNB-75.
Assay [20] concerns ACHN.

`CCCCCCCCCCCCC(=O)OC(c1cnco1)c1nc(C(O)CC(O)C(O)C(C)O)co1` (stereo not given): the GI50 is > 10 µM (inactive) in assay [1]; < 39 nM (active) in [2]; 264 nM (active) in assay [3]; 467 nM (active) in [4]; 341 nM (active) in assay [5]; 157 nM (active) in assay [6]. The GI50 in assay [7] was 299 nM (active); in assay [8], 1.23 µM (inactive); in [9], 2.85 µM (inactive); in assay [10], 630 nM (active); in assay [11], 1.53 µM (inactive); in [12], 284 nM (active). Further, the GI50 is 1.31 µM (inactive) in [13]; 5.62 µM (inactive) in [14]; 11.3 µM (inactive) in [15]; 144 nM (active) in assay [16]; 20.9 µM (inactive) in [17]; 1.78 µM (inactive) in assay [18]. Besides, the GI50 in assay [19] was 581 nM (active); in assay [20], 1.45 µM (inactive).
